Results: patent US20230190927A1, “ENPP1 INHIBITORS AND METHODS OF MODULATING IMMUNE RESPONSE” (Angarus Therapeutics, Inc., priority 2020, published 2023)

Experiments:
[1] = target: T1, purified recombinant mouse ENPP1 (Mus musculus, UniProt P06802); assay: ENPP1 activity assay using TMP-pNP as a substrate; format: biochemical; conditions: TMP-pNP 2 μM, mouse ENPP1 0.5 nM, pH 7.5, room temperature
T1 sequence (P06802 1-906): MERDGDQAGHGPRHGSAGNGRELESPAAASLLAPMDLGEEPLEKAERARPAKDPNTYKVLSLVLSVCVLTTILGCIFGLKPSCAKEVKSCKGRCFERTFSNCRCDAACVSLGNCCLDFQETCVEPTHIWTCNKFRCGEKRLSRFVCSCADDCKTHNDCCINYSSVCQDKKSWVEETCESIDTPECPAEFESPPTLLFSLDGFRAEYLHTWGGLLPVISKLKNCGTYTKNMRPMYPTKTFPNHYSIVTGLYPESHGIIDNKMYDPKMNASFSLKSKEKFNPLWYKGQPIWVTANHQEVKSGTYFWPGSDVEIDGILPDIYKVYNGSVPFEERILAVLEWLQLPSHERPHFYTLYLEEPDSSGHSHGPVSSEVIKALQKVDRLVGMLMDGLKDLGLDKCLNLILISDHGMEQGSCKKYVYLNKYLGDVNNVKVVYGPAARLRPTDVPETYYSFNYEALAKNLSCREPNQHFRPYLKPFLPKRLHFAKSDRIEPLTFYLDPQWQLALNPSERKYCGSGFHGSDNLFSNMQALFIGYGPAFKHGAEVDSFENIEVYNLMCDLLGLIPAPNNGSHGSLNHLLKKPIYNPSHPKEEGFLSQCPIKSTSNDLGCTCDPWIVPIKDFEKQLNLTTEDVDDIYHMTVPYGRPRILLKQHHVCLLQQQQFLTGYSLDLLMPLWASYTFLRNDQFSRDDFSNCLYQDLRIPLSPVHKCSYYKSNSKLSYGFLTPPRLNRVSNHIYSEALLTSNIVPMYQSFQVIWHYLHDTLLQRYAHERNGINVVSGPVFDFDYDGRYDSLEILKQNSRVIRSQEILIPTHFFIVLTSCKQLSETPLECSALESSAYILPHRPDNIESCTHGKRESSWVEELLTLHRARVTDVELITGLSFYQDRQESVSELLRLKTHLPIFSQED
Experimental: Selected compounds of Table 1, Table 2 and other derivatives were prepared and assessed in an ENPP1 activity assay using thymidine monophosphate paranitrophenol (TMP-pNP) as a substrate. Enzyme reactions were prepared with TMP-pNP (2 μM), 5-fold dilutions of ENPP1 inhibitor, and purified recombinant mouse ENPP1 (0.5 nM) in 100 mM Tris, 150 mM NaCl, 2 mM CaCl2, 200 μM ZnCl2, pH 7.5 at room temperature. Reaction progress was monitored by measuring absorbance at 400 nm of paranitrophenolate produced by the reaction for 20 minutes.

[2] = target: T1, purified recombinant mouse ENPP1; assay: ENPP1 enzyme activity assay using 32P cGAMP as a substrate (TLC); format: biochemical
Experimental: Compounds were also assessed in an ENPP1 enzyme activity assay using ^32P cGAMP as a substrate. Radiolabeled ^32P cGAMP was synthesized by incubating unlabeled ATP (1 mM) and GTP (1 mM) doped with ^32P-ATP with 2 μM purified recombinant porcine cGAS in 20 mM Tris pH 7.5, 2 mM MgCl2, 100 μg/mL herring testes DNA) overnight at room temperature, and the remaining nucleotide starting materials were degraded with alkaline phosphatase for 4 h at 37° C. The probe ^32P-cGAMP (5 μM) was incubated with purified recombinant mouse ENPP1 (20 nM) or whole cell lysates in 100 mM Tris, 150 mM NaCl, 2 mM CaCl2, 200 μM ZnCl2, pH 7.5 at room temperature for 5 hours. To generate enzyme inhibition curves, 5-fold dilutions of ENPP1 inhibitor were included in the reaction. […] Plates were exposed on a phosphor screen (Molecular Dynamics) and imaged on a Typhoon 9400 and the ^32P signal was quantified using ImageJ.

4T1 tumor [3] = assay: 4T1 tumor model: IR with compound 1, cGAMP and/or anti-CTLA-4, tumor volume and survival; format: in vivo, mouse; conditions: 20 Gy IR, single agent intratumorally on day 2, 4 and 7 after IR (100 μL of 100 μM compound 1 or 10 μg cGAMP)
Experimental: Tumor volumes were recorded every other day.

4T1 tumor [4] = assay: Tumor-associated dendritic cells in mouse 4T1 tumor model (FACS); conditions: intratumoral 100 μL of 1 mM compound 1
Experimental: Seven- to nine-week-old female Balb/c mice (Jackson Laboratories) were inoculated with 1×10^6 4 T1-luciferase tumor cells suspended in 50 μL of PBS into the mammary fat pad. […] Anaesthetized animals were shielded with a 3.2 mm lead shield with a 15×20 mm aperture where the tumor was placed. […] On the next day, the tumor was extracted and incubated in RPMI+ 10% FBS with 20 μg/mL DNase I type IV (Sigma-Aldrich) and 1 mg/mL Collagenase from Clostridium histolyticum (Sigma-Aldrich) at 37° C. for 30 min. […] Cells were stained with Live/Dead fixable near-IR dead cell staining kit (Thermo Fisher Scientific), Fc-blocked for 10 min using TruStain fcX and subsequently antibody-stained with CD11c, CD45, and I-A/I-E (all Biolegend). Cells were analyzed using an SH800S cell sorter (Sony) or an LSR II (BD Biosciences).
Mean±SEM (n=2). **P=0.004 (Student's t test).

[5] = 32P-cGAMP 5 μM, mouse ENPP1 20 nM, pH 7.5, room temperature, 5 hours, read-out: IC50 values (cGAMP; μM)

Experimental for human CD14+ monocytes: Primary human peripheral blood mononucleocyte cells (PBMCs) were isolated by subjecting enriched buffy coat from whole blood to a Percoll density gradient. CD14^+ monocytes were isolated using CD14^+ MicroBeads (Miltenyi). CD14^+ monocytes were cultured in RMPI supplemented with 2% human serum and 100 U/mL penicillin-streptomycin. […] 24-26 hours following supernatant transfer, total RNA was extracted using Trizol (Thermo Fisher Scientific) and reverse transcribed with Maxima H Minus Reverse Transcriptase (Thermo Fisher Scientific). Real-time RT-PCR was performed in duplicate with AccuPower 2X Greenstar qPCR Master Mix (Bioneer) on a 7900HT Fast Real-Time PCR System (Applied Biosystems). Data were normalized to CD14 expression for each sample. Fold induction was calculated using ΔΔCt.
Supernatant from these cells was transferred to primary CD14^+ human PBMCs. IFNB1 mRNA levels were normalized to CD14 and the fold induction was calculated relative to untreated CD14^+ cells.

IC50 [1] | Compound | also measured
< 0.005 µM | COc1cccc2c(N3CCC(COP(=O)(O)O)CC3)ncnc12 [Compound 86] | –
0.05 to 0.5 µM | O=P(O)(O)CCC1CCN(c2ncnc3cc(O)ccc23)CC1 [Compound 5] | –
0.005 to 0.05 µM | COc1cc2ncnc([C@H]3CC[C@H](CCP(=O)(O)O)CC3)c2cc1OC [Compound 82] | –
0.05 to 0.5 µM | COc1ccc2c(N3CCC(CCP(=O)(O)O)CC3)ncnc2c1OC [Compound 22] | –
0.5 to 5 µM | COc1ccc(OC)c2c(N3CCC(CCP(=O)(O)O)CC3)ncnc12 [Compound 16] | –
0.05 to 0.5 µM | COc1cc2nccc(N3CCC(CCP(=O)(O)O)CC3)c2cc1OC [Compound 71] | –
0.05 to 0.5 µM | Cc1nccn1-c1cc(N2CCC(CCP(=O)(O)O)CC2)ncn1 [Compound 93] | –
< 0.005 µM | COc1cccc2c(N3CCC(CCP(=O)(O)O)CC3)ncnc12 [Compound 76] | IC50 [2]: 0.005 to 0.05 µM
> 5 µM | CNC(=O)NCC1CCN(c2ncnc3cc(OC)c(OC)cc23)CC1 [Compound 73] | –
0.005 to 0.05 µM | COc1ccc2ncnc(N3CCC(CCP(=O)(O)O)CC3)c2c1 [Compound 19] | –
0.05 to 0.5 µM | Nc1ccc2c(N3CCC(CCP(=O)(O)O)CC3)ncnc2c1 [Compound 30] | –
0.005 to 0.05 µM | COc1ccc2c(N3CCC(CCP(=O)(O)O)CC3)nc(C)nc2c1 [Compound 12] | IC50 [2, 5]: 0.05 to 0.5 µM
0.05 to 0.5 µM | COc1cc(OC)c2ncnc(N3CCC(CCP(=O)(O)O)CC3)c2c1 [Compound 7] | –
0.05 to 0.5 µM | COc1cc2ccnc(N3CCC(CCP(=O)(O)O)CC3)c2cc1OC [Compound 38] | –
0.05 to 0.5 µM | Cc1cnc(C)n1-c1cc(N2CCN(CCP(=O)(O)O)CC2)ncn1 [Compound 103] | –
0.5 to 5 µM | O=P(O)(O)CCC1CCN(c2ncnc3cccc(F)c23)CC1 [Compound 70] | –
0.05 to 0.5 µM | O=P(O)(O)CCC1CCN(c2ncnc3cc(Cl)ccc23)CC1 [Compound 84] | –

IC50 [1] | Compound | also measured
0.05 to 0.5 µM | COc1cc2ncnc(N3CCC(COP(=O)(O)O)CC3)c2cc1OC [Compound 60] | –
0.005 to 0.05 µM | COc1ccc2c(N3CCC(CCP(=O)(O)O)CC3)ncnc2c1OC [Compound 25] | –
> 5 µM | COc1ccc2c(N3CCN(CCP(=O)(O)O)CC3)ncnc2c1 [Compound 42] | –
> 5 µM | CC(C)Oc1ccc2c(N3CCC(CCP(=O)(O)O)CC3)ncnc2c1 [Compound 11] | –
– | Nc1nc2c(ncn2[C@@H]2O[C@@H]3COP(=O)(O)O[C@H]4[C@@H](O)[C@H](n5cnc6c(N)ncnc65)O[C@@H]4COP(=O)(O)O[C@@H]2[C@@H]3O)c(=O)[nH]1 [cGAMP, cyclic guanosine monophosphate-adenosine monophosphate] | tumor shrinkage effect over IR treatment (4T1 tumor [3]): had no effect over IR treatment
0.5 to 5 µM | COc1cc2ncnc(N3CCC(CC(=O)NO)CC3)c2cc1OC [Compound 61] | –
> 5 µM | O=P(O)(O)CCC1CCN(c2ncnc3nc[nH]c23)CC1 [Compound 68] | –
0.5 to 5 µM | O=P(O)(O)CCC1CCN(c2ncnc3cc4c(cc23)OCCO4)CC1 [Compound 13] | –
< 0.005 µM | COc1ccc2c(N3CCC(CCP(=O)(O)O)CC3)nc(/C=C/c3cccnc3)nc2c1 [Compound 18] | IC50 [2, 5]: 0.05 to 0.5 µM
0.05 to 0.5 µM | COc1cc2ncnc(N3CCC(CCB(O)O)CC3)c2cc1OC [Compound 87] | –
0.005 to 0.05 µM | COc1cc2ncnc([C@H]3CC[C@@H](CCP(=O)(O)O)CC3)c2cc1OC [Compound 81] | –
0.5 to 5 µM | O=P(O)(O)CCC1CCN(c2ncnc3ccc(O)cc23)CC1 [Compound 23] | –
– | COc1cc2ncnc(N3CCC(CCP(=O)(O)O)CC3)c2cc1OC [Compound 1] | extracellular cGAMP levels (human CD14+ monocytes; 293T cGAS ENPP1low cells with transient overexpression of ENPP1): rescued extracellular cGAMP levels; CD14+ IFNB1 expression (human CD14+ monocytes; supernatant of ENPP1-overexpressing 293T cGAS ENPP1low cells transferred to CD14+ monocytes): induced CD14^+ IFNB1 expression; tumor associated CD11c+ population (4T1 tumor [4]; tumors pretreated with 20 Gy IR): increased the tumor associated CD11c^+ population; tumor-associated leukocyte compositions (4T1 tumor [4]; without IR, vs PBS control): did not change tumor-associated leukocyte compositions compared to the PBS control
< 0.005 µM | COc1ccc2c(N3CCC(CCP(=O)(O)O)CC3)ncnc2c1 [Compound 10] | IC50 [2, 5]: 0.05 to 0.5 µM
0.05 to 0.5 µM | COc1cc2ncnc(N3CCC(CP(=O)(O)O)CC3)c2cc1OC [Compound 88] | –
0.05 to 0.5 µM | COc1cc2ncnc(N3CCN(C(=O)CP(=O)(O)O)CC3)c2cc1OC [Compound 75] | IC50 [2, 5]: 0.5 to 5 µM

Compound | IC50 [1] | also measured
COc1cc2ncnc(N3CCC(CCP(O)(O)=S)CC3)c2cc1OC [Compound 83] | 0.05 to 0.5 µM | –
COc1cccc2c(N3CCC(CCP(O)(O)=S)CC3)ncnc12 [Compound 92] | < 0.005 µM | –
COc1cc2ncnc(N3CCC(COP(O)(O)=S)CC3)c2cc1OC [Compound 67] | 0.005 to 0.05 µM | –
